In ChEMBL document CHEMBL1150027, “Apigenin-7-O--D-glucopyranoside, an anti-HIV principle from Kummerowia striata” (Bioorg Med Chem Lett, 1994):
Converted amounts (≈) assume the structure as drawn.

Columns and labels:
[1] = test system: H9; experiment: Inhibitory activity against H9 cells uninfected with HIV-1; assay type: functional, cell-based; conditions: Homo sapiens
[2] = test system: H9; experiment: Inhibitory activity against HIV-1 IIIB replication in H9 cell line; assay type: functional, cell-based; conditions: Homo sapiens
[3] = Ratio of IC50 to EC50 was expressed as therapeutic index; conditions: read-out: TI

SMILES	IC50 [1]	EC50 [2]	selectivity ratio [3]
O=c1c(O[C@@H]2O[C@H](CO)[C@@H](O)[C@H](O)[C@H]2O)c(-c2ccc(O)cc2)oc2cc(O)cc(O)c12 [ASTRAGALIN]	< 100 µg/mL	80 µg/mL (≈ 178 µM)	< 1.25
O=c1c(O)c(-c2ccc(O)c(O)c2)oc2cc(O)cc(O)c12 [QUERCETIN]	< 4 µg/mL	1.6 µg/mL (≈ 5.29 µM)	< 2.5
O=c1cc(-c2ccc(O)cc2)oc2cc(O)cc(O)c12 [APIGENIN]	35 µg/mL (≈ 130 µM)	9 µg/mL (≈ 33.3 µM)	4
O=c1cc(-c2ccc(O)cc2)oc2cc(O[C@@H]3O[C@H](CO)[C@@H](O)[C@H](O)[C@H]3O)cc(O)c12 [APIGETRIN]	> 100 µg/mL	1.8 µg/mL (≈ 4.16 µM)	> 55.6
